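Growth conditions: 96-well plates. Treatment: test compound, 48 hours, 5 concentrations. Analysis: linear interpolation between bracketing concentrations; unreached endpoints set to highest concentration. Abbreviation: GI50, concentration required for 50% inhibition of growth. TGI: total growth inhibition.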
How the values were obtained:
Assay in all cases: inhibition of tumour cell growth, NCI panel, 48 h
[1] = test system: K-562 leukemia
[2] = test system: ACHN renal
[3] = test system: MALME-3M melanoma
[4] = test system: SK-MEL-5 melanoma
[5] = test system: EKVX NSCLC
[6] = test system: NCI-H226 lung
[7] = test system: NCI-H23 lung
[8] = test system: HT29 colon
[9] = test system: NCI/ADR-RES ovarian
[10] = test system: HS 578T breast

Structure (SMILES): O=C(Nc1ccc(Nc2ccc(NC(=O)c3ccccc3)c3c2C(=O)c2ccccc2C3=O)c2c1C(=O)c1ccccc1C2=O)c1ccccc1
- TGI [1]: > 100 µM
- TGI [2]: > 100 µM
- TGI [3]: > 100 µM
- TGI [4]: > 100 µM
- TGI [5]: > 100 µM
- TGI [6]: > 100 µM

Structure (SMILES): COc1ccc(C(=O)C(c2ccc(OC)cc2)C2(O)C(=O)Nc3c(Cl)cc(Cl)cc32)cc1 (configuration not stated)
- TGI [1]: 41.5 µM
- TGI [7]: 38.5 µM
- TGI [2]: 61.2 µM
- TGI [3]: 29.8 µM
- TGI [8]: 42.4 µM
- TGI [4]: 34.7 µM
- TGI [5]: 38.9 µM
- TGI [6]: 36.5 µM

Structure (SMILES): CCN1CCCCCCCCCC(=N/O)/C(=N\O)C1
- TGI [9]: > 100 µM
- TGI [1]: > 100 µM
- TGI [7]: > 100 µM
- TGI [2]: > 100 µM
- TGI [3]: > 100 µM
- TGI [8]: > 100 µM
- TGI [4]: > 100 µM
- TGI [5]: > 100 µM
- TGI [6]: > 100 µM

Structure (SMILES): CCP(C)(=O)CC
- TGI [1]: > 100 µM
- TGI [7]: > 100 µM
- TGI [2]: > 100 µM
- TGI [3]: > 100 µM
- TGI [8]: > 100 µM
- TGI [4]: > 100 µM
- TGI [5]: > 100 µM
- TGI [6]: > 100 µM

Structure (SMILES): O=C1CC[C@@H](S(=O)(=O)c2ccccc2)[C@H](/C=C/c2ccccc2)O1
- TGI [1]: > 100 µM
- TGI [7]: > 100 µM
- TGI [2]: > 100 µM
- TGI [3]: > 100 µM
- TGI [8]: > 100 µM
- TGI [4]: > 100 µM
- TGI [5]: > 100 µM
- TGI [6]: > 100 µM

Structure (SMILES): Cc1[nH]c2ccccc2c1/C=C/c1c(C)[nH]c2ccccc12
- TGI [1]: > 100 µM
- TGI [7]: > 100 µM
- TGI [2]: > 100 µM
- TGI [3]: > 100 µM
- TGI [8]: > 100 µM
- TGI [4]: > 100 µM
- TGI [5]: > 100 µM
- TGI [6]: > 100 µM

Structure (SMILES): CC(=O)CCC[C@@H](C)[C@@H]1O[C@H]([C@@]2(C)CCC(=O)O2)CC2[C@H]1OC(=O)C21CC1 (some centres not stated)
- GI50 [9]: 71.3 µM
- TGI [9]: > 100 µM
- GI50 [1]: > 100 µM
- TGI [1]: > 100 µM
- GI50 [7]: 15.3 µM
- TGI [7]: 59.6 µM
- GI50 [2]: > 100 µM
- TGI [2]: > 100 µM
- GI50 [8]: > 100 µM
- TGI [8]: > 100 µM
- GI50 [4]: 21.7 µM
- TGI [4]: 92.4 µM
- GI50 [5]: 8.03 µM
- TGI [5]: 49.5 µM

Structure (SMILES): Nc1nc2c(ncn2C2OC(CO)C(O)C2O)c(=O)o1 (configuration not stated)
- TGI [1]: > 100 µM
- TGI [7]: > 100 µM
- TGI [2]: > 100 µM
- TGI [3]: > 100 µM
- TGI [8]: > 100 µM
- TGI [4]: > 100 µM
- TGI [5]: > 100 µM
- TGI [6]: > 100 µM

Structure (SMILES): CCOC(=O)C1(C)C2=CC=C(O2)C(C)(C)C2=CC=C(O2)C(C)(C)C2=CC=C(O2)C(C)(C)C2=CC=C1O2
- TGI [1]: > 100 µM
- TGI [7]: > 100 µM
- TGI [2]: > 100 µM
- TGI [3]: > 100 µM
- TGI [8]: > 100 µM
- TGI [5]: > 100 µM
- TGI [6]: > 100 µM

Structure (SMILES): N#CC(Cl)CS(=O)(=O)c1ccccc1 (configuration not stated)
- TGI [1]: 4.85 µM
- TGI [7]: 33.5 µM
- TGI [10]: > 100 µM
- TGI [2]: 9.96 µM
- TGI [3]: 4.54 µM
- TGI [8]: 53.1 µM
- TGI [4]: 29.6 µM
- TGI [5]: 38.6 µM
- TGI [6]: 46.7 µM

Structure (SMILES): Cc1cc(C)c([O-])c(-[n+]2c(-c3ccccc3)cc(-c3ccccc3)cc2-c2ccccc2)c1
- TGI [1]: > 100 µM
- TGI [7]: 13.7 µM
- TGI [2]: 16.6 µM
- TGI [3]: 16.7 µM
- TGI [8]: 12.2 µM
- TGI [4]: 5.71 µM
- TGI [5]: 21.4 µM
- TGI [6]: 24.9 µM

Structure (SMILES): NNC(=O)N/N=C(/CC1(O)C(=O)Nc2ccc(Br)cc21)c1ccccc1 (configuration not stated)
- TGI [1]: 69.1 µM
- TGI [7]: > 100 µM
- TGI [2]: > 100 µM
- TGI [3]: > 100 µM
- TGI [8]: > 100 µM
- TGI [5]: > 100 µM
- TGI [6]: > 100 µM

Structure (SMILES): O=C1C=C(Nc2cc(Cl)ccc2Cl)c2ccccc2C1=O
- TGI [1]: 36.8 µM
- TGI [7]: 39.3 µM
- TGI [2]: > 100 µM
- TGI [3]: 39.4 µM
- TGI [8]: > 100 µM
- TGI [5]: > 100 µM
- TGI [6]: 47.8 µM

Structure (SMILES): CN(C)CC1CCCC/C1=N\OC(=O)c1ccccc1 (configuration not stated)
- TGI [1]: > 100 µM
- TGI [7]: > 100 µM
- TGI [2]: > 100 µM
- TGI [3]: > 100 µM
- TGI [8]: > 100 µM
- TGI [4]: > 100 µM
- TGI [5]: > 100 µM
- TGI [6]: > 100 µM

Structure (SMILES): CS(=O)(=O)ON1C(=O)c2ccc(N)cc2C1=O
- TGI [1]: > 100 µM
- TGI [7]: > 100 µM
- TGI [2]: > 100 µM
- TGI [3]: > 100 µM
- TGI [8]: > 100 µM
- TGI [4]: > 100 µM
- TGI [5]: > 100 µM
- TGI [6]: > 100 µM

Structure (SMILES): [CH3][Ge]([CH3])([CH2]CC#N)[S]c1ccccc1
- GI50 [1]: 8 µM
- TGI [1]: > 100 µM
- GI50 [7]: 18.3 µM
- TGI [7]: 46.4 µM
- GI50 [2]: 18 µM
- TGI [2]: 33.1 µM
- GI50 [3]: 73.7 µM
- TGI [3]: > 100 µM
- GI50 [8]: 17.8 µM
- TGI [8]: 32.9 µM
- GI50 [4]: 26 µM
- TGI [4]: 75.9 µM
- GI50 [5]: 7.28 µM
- TGI [5]: 66.2 µM
- GI50 [6]: 13.1 µM
- TGI [6]: 33.4 µM

Structure (SMILES): C=C1C2CCCC1C1(S(C)(=O)=O)CCCCC21O (configuration not stated)
- TGI [1]: > 100 µM
- TGI [7]: > 100 µM
- TGI [2]: > 100 µM
- TGI [3]: > 100 µM
- TGI [8]: > 100 µM
- TGI [4]: > 100 µM
- TGI [5]: > 100 µM
- TGI [6]: > 100 µM

Structure (SMILES): COC12OCCN(C)C1=CC(=O)C1N=NCC12 (configuration not stated)
- TGI [1]: > 100 µM
- TGI [7]: > 100 µM
- TGI [8]: > 100 µM
- TGI [4]: > 100 µM
- TGI [5]: > 100 µM
- TGI [6]: > 100 µM

Structure (SMILES): COC1(OC)CCC2(C)OC(c3ccccc3)C1O2 (configuration not stated)
- TGI [1]: > 100 µM
- TGI [7]: > 100 µM
- TGI [2]: > 100 µM
- TGI [3]: > 100 µM
- TGI [8]: > 100 µM
- TGI [5]: > 100 µM
- TGI [6]: > 100 µM

Structure (SMILES): C=C1CC[C@@](C)(c2cc(Br)c(C)cc2OC(C)=O)[C@H]1C
- GI50 [9]: 12.1 µM
- TGI [9]: 25 µM
- GI50 [1]: 14 µM
- TGI [1]: 30.2 µM
- GI50 [7]: 13.9 µM
- TGI [7]: 28.2 µM
- GI50 [10]: 19.3 µM
- TGI [10]: 42.5 µM
- GI50 [2]: 13.7 µM
- TGI [2]: 27.3 µM
- GI50 [3]: 15.2 µM
- TGI [3]: 30.5 µM
- GI50 [8]: 14.9 µM
- TGI [8]: 28.1 µM
- GI50 [4]: 15.6 µM
- TGI [4]: 29.2 µM
- GI50 [5]: 14.7 µM
- TGI [5]: 28.2 µM

Structure (SMILES): NC(N)=NCCCC(Nc1c2ccccc2nc2ccccc12)C(=O)O (configuration not stated)
- TGI [1]: > 100 µM
- TGI [7]: > 100 µM
- TGI [2]: > 100 µM
- TGI [3]: > 100 µM
- TGI [8]: > 100 µM
- TGI [5]: > 100 µM
- TGI [6]: > 100 µM

Structure (SMILES): COc1c(CC(C)=O)c2ccccc2n1C(C)=O
- TGI [1]: > 100 µM
- TGI [7]: > 100 µM
- TGI [2]: > 100 µM
- TGI [8]: > 100 µM
- TGI [5]: > 100 µM

Structure (SMILES): Cc1cc(NS(=O)(=O)c2ccc(NC(=O)c3cccc4c(Nc5ccc(S(=O)(=O)Nc6cc(C)on6)cc5)c5ccc(Cl)cc5nc34)cc2)no1
- TGI [1]: > 100 µM
- TGI [7]: > 100 µM
- TGI [2]: > 100 µM
- TGI [3]: > 100 µM
- TGI [8]: > 100 µM
- TGI [4]: > 100 µM
- TGI [5]: > 100 µM

Reference: PubChem BioAssay (NCI)
